Values quoted from earlier work in PMC8231113, “Protein Secondary Structure Affects Glycan Clustering in Native Mass Spectrometry” (Life, 2021).

How the values were obtained:
[1] = molecular target: wildtype GII.4 Saga P dimer; conditions: read-out: KD, result from NMR; cited from earlier work
[2] = test system: deamidated GII.4 Saga P dimer; parameters: method as in PMID 30899001, PMID 30071731; conditions: NMR and HDX MS; cited from earlier work
hNoV P dimers = test system: hNoV P dimers; parameters: method as in PMID 22170811, PMID 30899001; conditions: cited from earlier work

Row | SMILES | Kd [1] [mM] | reduction of glycan binding affinity of deamidated P dimer compared to the wildtype [2] | binding to hNoV (hNoV P dimers)
1 | C[C@@H]1O[C@@H](O[C@H]2C(O)O[C@H](CO)[C@H](O)[C@@H]2O[C@H]2O[C@H](CO)[C@H](O)[C@H](O)[C@H]2O)[C@@H](O)[C@H](O)[C@@H]1O (some centres unmarked) [B trisaccharide] | 6.7 | roughly by an order of magnitude | 
2 | O=C[C@@H](O)[C@H](O)[C@H](O)[C@@H](O)CO [L-galactose] |  |  | known not to bind
3 | C[C@H](O)[C@@H](O)[C@@H](O)[C@H](O)C=O [fucose] | 22 | roughly by an order of magnitude | 
